From PMC5978884, “Dissection of the antimicrobial and hemolytic activity of Cap18: Generation of Cap18 derivatives with enhanced specificity” (PLoS ONE, 2018)
Where no end group is shown, it is not given here.

Legend:
Type in all cases: cell-based
[1] = tested on: Enterococcus faecalis ATCC29212
Method: (§1) All strains were grown in Mueller-Hinton-II medium, except L. monocytogenes which was grown in BHI medium and L. lactis which was grown in MRS medium. Incubation took place aerobically at 37°C, except for Y. ruckeri and A. salmonicida, which were grown aerobically at RT (20 °C), and L. lactis grown aerobically at 30°C. All plates were incubated for 16–21 hours.
(§2) The minimum inhibitory concentrations (MICs) of the AMPs were measured in 96-well microtiter plates according the Clinical and Laboratory Standards Institute (CLSI, formerly National Committee for Clinical Laboratory Standards [NCCLS]). Briefly, liquid Mueller-Hinton-II medium containing increasing concentrations of AMPs is inoculated with a defined number of cells (approx. 10^5 CFUs/ml) in 96-well microtiter plates (polypropylene), whereas each plate also includes a positive growth control and a negative control (sterile control). The range of peptide concentrations analyzed was 0.125–64 μg/ml for the high purity peptides and 0.06–32 μg/ml for peptides of the variant library. After incubation, the MIC is determined by the lowest concentration showing no visible growth. All plates were incubated for 16–20 hours. The MIC of the reference antibiotics was determined by the use of Sensititre panels (Trek Diagnostic Systems Ltd, East Grinstead, UK).

[2] = tested on: Pseudomonas aeruginosa ATCC27853
Method: as §1, §2

[3] = tested on: Escherichia coli ATCC25922
Method: as §1, §2

[4] = tested on: Listeria monocytogenes N22-2
Method: as §1, §2

[5] = tested on: Lactococcus lactis IL1403
Method: as §1, §2

[6] = tested on: Yersinia ruckeri 392/2003; experiment: microbe, parasite or virus in culture
Method: as §1, §2

[7] = tested on: Aeromonas salmonicida ATCC33658; experiment: microbe, parasite or virus in culture; settings: ATCC33658
Method: as §1, §2

[8] = tested on: Salmonella enterica serovar Typhimurium LT2; experiment: microbe, parasite or virus in culture; settings: LT2
Method: as §1, §2

Sequence	MIC E. faecalis ATCC29212 [1]	MIC P. aeruginosa ATCC27853 [2]	MIC E. coli ATCC25922 [3]	MIC L. monocytogenes N22-2 [4]	MIC L. lactis IL1403 [5]	MIC Y. ruckeri 392/2003 [6]	MIC A. salmonicida ATCC33658 [7]	MIC S. Typhimurium LT2 [8]	MIC Y. ruckeri [6]	MIC A. salmonicida [7]	MIC S. Typhimurium [8]
GLRKRLRKFRNKFKEKLKKIGQKIQGLLPKLAPRTDY [Peptide 4]	8 to 16 µg/mL	4 to 8 µg/mL	4 to 8 µg/mL	4 µg/mL	2 µg/mL	2 µg/mL	4 µg/mL	4 µg/mL	–	–	–
GLRKRLRKFRNKIKEMLKKIGQKIQGLLPKLAPRTDY [Peptide 14]	32 µg/mL	16 to 32 µg/mL	16 µg/mL	16 µg/mL	≥64 µg/mL	8 to 16 µg/mL	8 to 16 µg/mL	16 µg/mL	4 µg/mL	4 µg/mL	4 µg/mL
GLRKRLRKFRNKIKEFLKKIGQKIQGLLPKLAPRTDY [Peptide 11]	16 µg/mL	32 µg/mL	16 µg/mL	16 µg/mL	≥64 µg/mL	16 to 32 µg/mL	16 to 32 µg/mL	16 µg/mL	4 µg/mL	4 µg/mL	8 µg/mL
GLRKRLRKFRNKMKEKLKKIGQKIQGLLPKLAPRTDY [Peptide 6]	8 to 16 µg/mL	8 to 16 µg/mL	8 to 16 µg/mL	4 µg/mL	2 µg/mL	4 µg/mL	4 µg/mL	8 µg/mL	–	–	–
GLRKRLRKFRNKIKEKLKKEGQKIQGLLPKLAPRTDY [Peptide 20]	≥64 µg/mL	16 µg/mL	≥64 µg/mL	32 µg/mL	32 µg/mL	32 µg/mL	16 µg/mL	8 µg/mL	16 µg/mL	8 µg/mL	4 µg/mL
GLRKRLRKFRNKIKEYLKKIGQKIQGLLPKLAPRTDY [Peptide 15]	16 µg/mL	16 µg/mL	16 µg/mL	8 to 16 µg/mL	≥64 µg/mL	8 to 16 µg/mL	16 µg/mL	16 µg/mL	8 µg/mL	4 µg/mL	8 µg/mL
GLRKRLRKFRNKIKEKLKKHGQKIQGLLPKLAPRTDY [Peptide 21]	≥64 µg/mL	8 µg/mL	32 µg/mL	16 µg/mL	32 µg/mL	16 µg/mL	4 µg/mL	8 µg/mL	8 µg/mL	2 µg/mL	2 µg/mL
GLRKRLRKFRNKIKEKLKKIGQKSQGLLPKLAPRTDY [Peptide 29]	≥64 µg/mL	8 to 16 µg/mL	32 to 64 µg/mL	16 to 32 µg/mL	32 µg/mL	16 µg/mL	8 µg/mL	8 µg/mL	16 µg/mL	8 µg/mL	4 µg/mL
